Source: the NIST ThermoML archive (doi:10.1016/j.jct.2008.01.003)

Experiment: mn = molality of the nth substance listed, in mol/kg
Conditions: 101 kPa, Liquid

CCCCCCn1cc[n+](C)c1.[Br-] [3-hexyl-1-methyl-1H-imidazolium bromide] + O
Conditions | mass density, 283.15 K [kg/m3] | mass density, 288.15 K [kg/m3] | mass density, 293.15 K [kg/m3] | mass density, 298.15 K [kg/m3] | mass density, 303.15 K [kg/m3] | speed of sound, 283.15 K [m/s] | speed of sound, 288.15 K [m/s] | speed of sound, 293.15 K [m/s] | speed of sound, 298.15 K [m/s] | speed of sound, 303.15 K [m/s]
m1 = 0.0042 | 999.919 | 999.312 | 998.411 | 997.246 | 995.843 | 1448.7 | 1467 | 1483.2 | 1497.5 | 1509.8
m1 = 0.0048 | 999.941 | 999.334 | 998.432 | 997.266 | 995.864 | 1448.8 | 1467.1 | 1483.2 | 1497.5 | 1509.8
m1 = 0.0067 | 1000.03 | 999.423 | 998.518 | 997.351 | 995.948 | 1449.2 | 1467.4 | 1483.5 | 1497.7 | 1510.1
m1 = 0.0081 | 1000.1 | 999.485 | 998.579 | 997.413 | 996.006 | 1449.3 | 1467.4 | 1483.6 | 1497.7 | 1510.1
m1 = 0.0139 | 1000.38 | 999.762 | 998.85 | 997.679 | 996.267 | 1450.3 | 1468.4 | 1484.5 | 1498.6 | 1510.8
m1 = 0.0295 | 1001.15 | 1000.52 | 999.592 | 998.405 | 996.983 | 1452.9 | 1470.8 | 1486.7 | 1500.5 | 1512.6
m1 = 0.0369 | 1001.52 | 1000.88 | 999.946 | 998.754 | 997.324 | 1453.3 | 1471.1 | 1486.8 | 1500.6 | 1512.5
m1 = 0.0487 | 1002.1 | 1001.45 | 1000.5 | 999.3 | 997.863 | 1455.3 | 1473 | 1488.5 | 1502.2 | 1514
m1 = 0.064 | 1002.84 | 1002.17 | 1001.21 | 999.994 | 998.545 | 1457.9 | 1475.3 | 1490.7 | 1504.1 | 1515.7
m1 = 0.073 | 1003.27 | 1002.59 | 1001.62 | 1000.4 | 998.942 | 1459.4 | 1476.6 | 1491.9 | 1505.2 | 1516.7
m1 = 0.094 | 1004.29 | 1003.59 | 1002.6 | 1001.35 | 999.878 | 1462.8 | 1479.8 | 1494.8 | 1507.8 | 1519.2
m1 = 0.1183 | 1005.45 | 1004.72 | 1003.71 | 1002.44 | 1000.95 | 1466.9 | 1483.5 | 1498.2 | 1510.9 | 1522
m1 = 0.1423 | 1006.6 | 1005.85 | 1004.81 | 1003.53 | 1002.01 | 1470.9 | 1487.1 | 1501.4 | 1513.9 | 1524.7
m1 = 0.1639 | 1007.6 | 1006.82 | 1005.77 | 1004.47 | 1002.94 | 1474 | 1490 | 1504.1 | 1516.3 | 1526.9
m1 = 0.2206 | 1010.25 | 1009.42 | 1008.31 | 1006.95 | 1005.38 | 1482.7 | 1497.9 | 1511.2 | 1522.8 | 1532.7
m1 = 0.2581 | 1011.96 | 1011.09 | 1009.94 | 1008.55 | 1006.95 | 1488.1 | 1502.7 | 1515.6 | 1526.7 | 1536.2
m1 = 0.3034 | 1014.04 | 1013.11 | 1011.93 | 1010.5 | 1008.86 | 1494.6 | 1508.7 | 1521 | 1531.6 | 1540.7
m1 = 0.3543 | 1016.3 | 1015.32 | 1014.08 | 1012.61 | 1010.93 | 1501.6 | 1515 | 1526.7 | 1536.8 | 1545.3
m1 = 0.3874 | 1017.82 | 1016.8 | 1015.53 | 1014.03 | 1012.32 | 1506.1 | 1519.1 | 1530.4 | 1540.1 | 1548.2
m1 = 0.4492 | 1020.54 | 1019.46 | 1018.13 | 1016.57 | 1014.81 | 1513.7 | 1525.9 | 1536.4 | 1545.4 | 1552.9
m1 = 0.6269 | 1028.05 | 1026.78 | 1025.28 | 1023.56 | 1021.66 | 1535.2 | 1545.3 | 1553.8 | 1561 | 1566.8
m1 = 0.8614 | 1037.26 | 1035.74 | 1034.03 | 1032.12 | 1030.03 | 1557.7 | 1565.1 | 1571.3 | 1576.3 | 1580.2
m1 = 1.001 | 1042.28 | 1040.64 | 1038.8 | 1036.78 | 1034.6 | 1568.5 | 1574.6 | 1579.6 | 1583.5 | 1586.5
m1 = 1.321 | 1053.01 | 1051.1 | 1049.03 | 1046.8 | 1044.42 | 1586.3 | 1590.3 | 1593.4 | 1595.6 | 1596.9
m1 = 1.739 | 1065.23 | 1063.06 | 1060.74 | 1058.31 | 1055.74 | 1600 | 1602.5 | 1604.1 | 1604.8 | 1604.7
m1 = 2.087 | 1074.16 | 1071.82 | 1069.36 | 1066.78 | 1064.09 | 1607.4 | 1608.9 | 1609.6 | 1609.4 | 1608.4
